This is an account of results in US6576632B1, “Biaryl compounds useful as anticancer agents” (Pfizer Inc, priority 1999, dated 2003).

In the case of `O=C(O)c1cccc(-c2cccc(CC(=O)N(Cc3ccccc3)[C@@H]3c4ccccc4CC[C@H]3Cc3ccccc3)c2)c1` (relative stereo) [Example 1, trans-3′-{[Benzyl-(2-benzyl-1,2,3,4-tetrahydro-naphthalen-1-yl)-carbamoyl]-methyl}-biphenyl-3-carboxylic acid], the melting point fell in the range of 171 to 172 °C.
